Marks after values point to notes of the source that are not given here.

One test has as its system COLO 205 cells. In words: MTS cytotoxicity test with COLO 205 cells. Format: cell-based, human. Particulars: Homo sapiens, COLO 205, 72 h, 3 days. How it is done: The assay, which is sold in kit form by Promega (Madison, Wis.; CellTiter 96 AQueous Non-Radioactive Cell Proliferation Assay), is based on the conversion by viable cells, but not by dead cells, of the tetrazolium salt, MTS (3-(4,5-dimethylthiazol-2-yl)-5-(3-carboxymethoxyphenyl)-2-(4-sulphophenyl)-2H-tetrazolium, inner salt), into a water-soluble colored formazan which is detected by spectrophotometry. Compounds are tested at nine concentrations, in order to determine IC50 values. For the test procedure, cells are harvested by trypsinization (or, in the case of non-adherent cells, by simple resuspension), washed, counted and distributed to wells of 96-well flat-bottom microtiter plates at 1000 cells per well in 200 μL of medium. In addition, one row of wells on a separate plate received cells as above (“time 0” plate). All plates are incubated at 37° in humidified 5% CO2 in air for about 24 hr.
On day 2, compounds for test are diluted and added to wells. Compounds are dissolved in DMSO at 10 mg/mL. For each compound, nine serial 2-fold dilutions are prepared in DMSO. Ten μL of each dilution in DMSO is transferred to 100 μL of medium, mixed well, and then 5 μL of this dilution is transferred in quadruplicate to wells containing cells. The final high concentration of each compound is typically 5 μM. Plates are returned to the incubator for three days. At the time of drug addition to the experimental plates, the MTS assay is run on the “time 0” plate. This produced the “time 0 MTS value” which is related to the number of viable cells per well at the time of drug addition.
After three days of culture with test compounds (day 5 overall), the MTS assay is done on all wells of the experimental plates. The absorbance values of the quadruplicate sample wells are averaged and divided by the average of the “time 0” values. The average of control wells without drug, divided by the average “time 0” value, gave the maximal relative increase in MTS color yield due to cell growth during the final three days of culture. The average of control wells with high drug concentration, divided by the “time 0” value, gave the minimal relative color yield for cells that are completely killed. The nine values for each compound are plotted against concentration, and the concentration that produced a relative color yield half way between the maximum and minimum is taken as the IC50 value.
COLO 205 is a human colon carcinoma cell line that is used for comparative testing of the examples of this invention and several reference compounds. This line is sensitive to paclitaxel and vincristine.
For orientation: Formazan colour is commonly taken as a measure of viable cells.

The test system of test [1] is U87-MG Human Glioblastoma. Kind of test: Human tumor xenograft test, U87-MG. It is filed as in vivo, athymic mice. How it is done:
(§1) The ability of compounds of this invention to inhibit tumor growth in animals is studied in the athymic mouse xenograft standard pharmacological test. Female nu/nu mice in an outbred albino background are obtained from Charles River Laboratories (Wilmington, Mass.). Animals are injected subcutaneously on the flank with the desired tumor cell suspension. Several days later, mice with tumors of approximately 150 mm^3 are selected from those injected (staged) and randomly distributed into groups of 5-10. The day of staging is called day 0. Compounds of the invention, usually formulated in saline (exceptions are noted in tables), are administered to animals by intravenous injection or oral gavage on various schedules starting on day 0 or 1, as noted in the tables. The control group in each experiment is dosed with vehicle on the same schedule. Tumor size is measured every 3-7 days with calipers in two orthogonal dimensions, and tumor volume is calculated from the formula volume=[(length×width^2)/2].
(§2) Tumor/Control (T/C) is obtained by dividing the mean tumor volume of the treated group by the mean tumor volume of the control group on each measurement day. A treatment dose is defined as active if it produced a statistically significant T/C of 0.50 or less. A p value≦0.05, determined by one-side Student's t-test, is required for statistical significance. A treatment dose is defined as toxic if more than 10% of the animals died from a compound-related toxicity.
(In xenograft studies the graft and the host belong to different species.)

A further test has as its system MAP-rich tubulin. Kind of test: Tubulin polymerization test with MAP-rich tubulin. It is filed as biochemical, bovine. Particulars: 0.3 μM compound, 20 min, fold enhancement over control. How it is done:
Medium is RPMI-1640 with L-glutamine, supplemented with 10% heat-inactivated fetal calf serum, 100 units/ml penicillin, and 100 μg/ml streptomycin (Gibco, Grand Island, N.Y.). Microtubule-associated protein (MAP)-rich tubulin, containing about 70% tubulin and 30% MAPs (#ML113), and highly purified tubulin (>99% pure, #TL238), both from bovine brain, are obtained from Cytoskeleton, Inc., Denver, Colo. PEM buffer (80 mM piperazine-N,N′-bis[2-ethanesulfonic acid], pH 6.9, 1 mM ethylene glycol-bis(β-aminoethyl ether)-N,N,N′,N′-tetraacetic acid, 1 mM magnesium chloride) and guanosine 5′-triphosphate (GTP) are also obtained from Cytoskeleton. [3H]paclitaxel, specific activity 14.7 Ci/mmol, is purchased from Moravek Biochemicals (Brea, Calif.). [^3H]vinblastine, specific activity 9.60 Ci/mmol and MicroSpin G-50 columns are obtained from Amersham Biosciences (Piscataway, N.J.). […] Other reagents are obtained from Sigma (St. Louis, Mo.).
Two variations of this procedure are done, one using MAP-rich tubulin and one using pure tubulin.
MAP-rich tubulin is dissolved in ice-cold PEM buffer containing 1 mM GTP (GPEM buffer) at a concentration of 1.3 mg/mL. The solution is centrifuged at top speed in an Eppendorf model 5415C microcentrifuge (Brinkmann Instruments, Westbury, N.Y.) for 10 min at […] immediately before use. The tubulin solution is added to wells of a ½-area 96-well plate (Costar No. 3696, Corning, Inc., Corning, N.Y.) already containing the compounds of interest. Each compound is tested in duplicate at a final concentration of 0.3 μM in a volume of 110 μL per well. The final DMSO concentration in all wells is 0.3%. Control reactions, which received compound solvent only, are done in quadruplicate. The plate is put in a SpectraMax Plus plate reader (Molecular Devices Corp. Sunnyvale, Calif.) thermostated at 24° and the absorbance of each well at 340 nm, a measure of the appearance of turbidity due to tubulin polymer formation, is determined every minute for 60 minutes. The absorbance at time 0 for each well is subtracted from each of the subsequent absorbance readings for that well, and then the duplicates are averaged.
In this assay, control reactions with MAP-rich tubulin show an S-shaped absorbance profile characterized by three phases: first, a lag phase during which no change in absorbance occurs; second, a polymerization phase in which absorbance increases; and third, a plateau phase in which absorbance has reached a maximum and little or no further change occurs. Polymerization enhancers such as paclitaxel and docetaxel shorten or eliminate the lag phase, increase the rate of the polymerization phase, and often increase the height of the plateau. […] The compounds of this invention have a taxane-like effect on the polymerization reaction. This has been expressed quantitatively in Table 5 by dividing the mean A340 of each sample at 20 min by the mean A340 of the control at 20 min to give a fold enhancement over control. […] Examples of this invention have factors ranging up to 8.1, with the majority in the 5 to 6-fold range.

The test system of test [2] is DLD1 Human Colon Carcinoma. In words: Human tumor xenograft test, DLD1. Particulars: DLD1, 20 mg/kg intravenously on days 1, 5, 9, and 13. It is filed as in vivo. Here is the method: as §1, §2
The mark [3] stands for this setting: U87-MG, 20 mg/kg PO, days 1, 5, 9.
Setting [4] is: U87-MG, 2.5 mg/kg PO, day 0, vehicle Klucel.
Where [5] appears, read: U87-MG, 5 mg/kg PO, day 0, vehicle Klucel.
[6] abbreviates: U87-MG, 10 mg/kg PO, day 0, vehicle Klucel.
The mark [7] stands for this setting: U87-MG, 20 mg/kg PO, day 0, vehicle Klucel.
Where [8] appears, read: U87-MG, 30 mg/kg PO, day 0, vehicle Klucel.

Broadly, the IC50 is the concentration at which inhibition is half-maximal. Molecule `C[C@H](Nc1c(-c2c(F)cc(OCCCN3CCCC3)cc2F)c(Cl)nc2ncnn12)C(F)(F)F` [Example 9, 5-Chloro-6-[2,6-difluoro-4-(3-pyrrolidin-1-ylpropoxy)phenyl]-N-[(1S)-2,2,2-trifluoro-1-methylethyl][1,2,4]triazolo[1,5-a]pyrimidin-7-amine] had an IC50 in the test on COLO 205 cells of 44 nM. Further, in test [1] (setting [3]), the “T/C on day 0” value came out at 1.04, the “T/C on day 3” value amounted to 0.93, the “T/C on day 7” value amounted to 0.70 and the “T/C on day 10” value is reported as 0.50**. In test [1] (setting [3]), the “T/C on day 13” value is given as 0.34** and the “T/C on day 17” value is 0.45**. In addition, the “tumor growth inhibition (activity call)” value in test [1] (U-87 MG, oral dosing, 20 mg/kg) is “active”. Further, in the test on MAP-rich tubulin, the “A340 Compound/A340 Control” value was determined as 5.8.

As to `CNCCCOc1cc(F)c(-c2c(Cl)nc3ncnn3c2N[C@@H](C)C(F)(F)F)c(F)c1` [Example 2, 5-Chloro-6-{2,6-difluoro-4-[3-(methylamino)propoxy]phenyl}-N-[(1S)-2,2,2-trifluoro-1-methylethyl][1,2,4]triazolo[1,5-a]pyrimidin-7-amine], the midpoint of inhibition with COLO 205 cells, the IC50, lay at 32 nM. In test [1] (setting [4]), the “T/C on day 0” value stood at 1.00, the “T/C on day 4” value is 0.84, the “T/C on day 8” value is listed as 0.82 and the “T/C on day 11” value is listed as 0.74*. For the same molecule, the “T/C on day 14” value in test [1] (setting [4]) was 0.74*. Further, in test [1] (setting [5]), the “T/C on day 0” value amounted to 1.02, the “T/C on day 4” value is on record as 0.71*, the “T/C on day 8” value is recorded as 0.75* and the “T/C on day 11” value is recorded as 0.65**. The “T/C on day 14” value in test [1] (setting [5]) is given as 0.68**. Moreover, in test [1] (setting [6]), the “T/C on day 0” value is on record as 1.00, the “T/C on day 4” value is on record as 0.60**, the “T/C on day 8” value is given as 0.51** and the “T/C on day 11” value is 0.40**. Moreover, in test [1] (setting [6]), the “T/C on day 14” value is on record as 0.41**. In addition, in test [1] (setting [7]), the “T/C on day 0” value is on record as 0.97, the “T/C on day 4” value is on record as 0.59**, the “T/C on day 8” value is reported as 0.38** and the “T/C on day 11” value is 0.28**. In addition, the “T/C on day 14” value in test [1] (setting [7]) is listed as 0.30**. In addition, in test [1] (setting [8]), the “T/C on day 0” value stood at 0.95, the “T/C on day 4” value is recorded as 0.41**, the “T/C on day 8” value is reported as 0.24** and the “T/C on day 11” value is on record as 0.19**. The “T/C on day 14” value in test [1] (setting [8]) was 0.23**. Also, the “tumor growth inhibition (activity call)” value in test [2] is “active”. Also, in the test with MAP-rich tubulin, the “A340 Compound/A340 Control” value turned out to be 5.8.

These data come from patent publication US7507739B2, “6-[(substituted)phenyl]triazolopyrimidines as anticancer agents” (Wyeth, priority 2003, dated 2009).
